Some test systems named below: M14 melanoma; OVCAR-4 ovarian; SK-MEL-5 melanoma; RPMI-8226 leukemia; RXF 393 renal; UO-31 renal; OVCAR-8 ovarian; K-562 leukemia; SK-MEL-28 melanoma.
What all share (experiment): NCI-60 cell line screen, 48 h

SMILES strings stand for the structures.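 Five concentrations, 48 hours, 96-well plates. The concentration for 50% growth inhibition is given as GI50. The concentration for full growth arrest is given as TGI.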

Turning to `CC(=O)SCCC1c2[nH]c3ccccc3c2CCN1O` (stereo unspecified), the TGI in the experiment with M14 melanoma, with OVCAR-4 ovarian, with SK-MEL-5 melanoma, with RPMI-8226 leukemia, in the experiment with RXF 393 renal and with UO-31 renal was > 100 µM throughout. The TGI with OVCAR-8 ovarian, with K-562 leukemia and with SK-MEL-28 melanoma was > 100 µM in each case.
As to `CCC(C)(O)c1cn(-c2cccc(S(=O)(=O)O)c2)nn1` (stereo unspecified), the TGI with M14 melanoma, with OVCAR-4 ovarian, in the experiment with SK-MEL-5 melanoma, in the experiment with RPMI-8226 leukemia, with RXF 393 renal and in the experiment with UO-31 renal was > 100 µM throughout. Also, the TGI in the experiment with OVCAR-8 ovarian, with K-562 leukemia and with SK-MEL-28 melanoma was > 100 µM throughout.
As to `CCOC(=O)[C@H]1Nc2ccc(C)cc2C2c3ccccc3CC21` (stereo partly specified), the TGI in the experiment with M14 melanoma, in the experiment on OVCAR-4 ovarian, in the experiment with SK-MEL-5 melanoma, in the experiment with RPMI-8226 leukemia, in the experiment with RXF 393 renal and in the experiment on UO-31 renal was > 100 µM throughout. For the same molecule, the TGI with OVCAR-8 ovarian, in the experiment with K-562 leukemia and with SK-MEL-28 melanoma was > 100 µM in each case.
With `CNC=O.[O]=[Ge].[O]=[Ge].[O]=[Ge].[O]=[Ge][OH].[O]=[Ge][OH]`, the TGI in the experiment with M14 melanoma, in the experiment with OVCAR-4 ovarian, in the experiment on SK-MEL-5 melanoma, with RPMI-8226 leukemia, with RXF 393 renal and with UO-31 renal was > 100 µM each time. Further, the TGI in the experiment with OVCAR-8 ovarian, in the experiment on K-562 leukemia and in the experiment on SK-MEL-28 melanoma was > 100 µM each time.
In the case of `CCN(CC)C(=O)C/C(C)=N/NC(=O)c1ccncc1`, the TGI in the experiment on M14 melanoma, in the experiment on SK-MEL-5 melanoma, with RPMI-8226 leukemia, with RXF 393 renal, in the experiment on UO-31 renal and in the experiment on OVCAR-8 ovarian was > 100 µM in each case. Besides, the TGI with K-562 leukemia and with SK-MEL-28 melanoma was > 100 µM throughout.
For `COC(=O)C(=O)C(C(=O)C(=O)Nc1ccc(C)cc1C)c1nc2ccccc2[nH]c1=O` (stereo unspecified), the TGI with M14 melanoma was > 100 µM; with OVCAR-4 ovarian it was > 100 µM; with SK-MEL-5 melanoma, > 100 µM; in the experiment with RPMI-8226 leukemia, > 100 µM; in the experiment with RXF 393 renal, 60 µM; in the experiment with UO-31 renal, > 100 µM. In addition, the TGI with OVCAR-8 ovarian, with K-562 leukemia and in the experiment on SK-MEL-28 melanoma was > 100 µM in each case.
For the molecule `CSc1ccc(/C=C2/C[N+](C)(C)C/C(=C/c3ccc(SC)cc3)C2=O)cc1`, the TGI with M14 melanoma was 28.8 µM; with RPMI-8226 leukemia, 9.92 µM; with RXF 393 renal, 31.6 µM; with UO-31 renal, > 100 µM; in the experiment on K-562 leukemia, > 100 µM; with SK-MEL-28 melanoma it was 20.9 µM.
`N#Cc1cnsc1`: the TGI in the experiment with M14 melanoma, with OVCAR-4 ovarian, in the experiment with SK-MEL-5 melanoma, in the experiment with RPMI-8226 leukemia, with RXF 393 renal and in the experiment on UO-31 renal was > 100 µM throughout. Moreover, the TGI with OVCAR-8 ovarian, in the experiment on K-562 leukemia and in the experiment with SK-MEL-28 melanoma was > 100 µM throughout.
Consider `COc1cc(C(=O)O[C@H](C(N)=O)[C@]2(C)CO2)c2ccccc2c1`, for which the GI50 was 15.1 µM in the experiment with M14 melanoma; 10.1 µM with OVCAR-4 ovarian; 7.52 µM in the experiment with SK-MEL-5 melanoma; 22.8 µM in the experiment on RPMI-8226 leukemia; 17.3 µM in the experiment with RXF 393 renal; 33.7 µM in the experiment on UO-31 renal. The GI50 in the experiment with OVCAR-8 ovarian is 5.87 µM; in the experiment with SK-MEL-28 melanoma, 15.6 µM. For the same molecule, the TGI in the experiment on M14 melanoma is 40 µM; in the experiment with OVCAR-4 ovarian it was 48.6 µM; in the experiment with SK-MEL-5 melanoma, 22 µM; in the experiment with RPMI-8226 leukemia, > 100 µM; in the experiment on RXF 393 renal, 47.3 µM; with UO-31 renal, > 100 µM. The TGI in the experiment on OVCAR-8 ovarian stood at 25.3 µM; in the experiment on SK-MEL-28 melanoma it was 31.5 µM.
On to `O=C(/C=C/c1ccccc1Cl)c1ccccc1Cl`, for which the TGI amounted to 47.2 µM in the experiment with M14 melanoma; 41.3 µM in the experiment with OVCAR-4 ovarian; 99.1 µM in the experiment on SK-MEL-5 melanoma; 44.7 µM in the experiment on RPMI-8226 leukemia; 34.3 µM in the experiment on UO-31 renal; 33.6 µM in the experiment on OVCAR-8 ovarian. The TGI stood at 47.7 µM in the experiment on K-562 leukemia and 36.5 µM with SK-MEL-28 melanoma.
Take `O=C1C2=C(CC3C(C2)C3(Br)Br)C(=O)C2=C1CC1C(C2)C1(Br)Br` (stereo unspecified): the TGI in the experiment with M14 melanoma, in the experiment on OVCAR-4 ovarian, in the experiment on SK-MEL-5 melanoma, with RXF 393 renal, in the experiment with UO-31 renal and with OVCAR-8 ovarian was > 100 µM throughout. Moreover, the TGI in the experiment on K-562 leukemia and with SK-MEL-28 melanoma was > 100 µM in each case.
Take `N#CCCN(CCC#N)c1ccc(/C=C2\N=C(CN3C(=O)c4ccccc4C3=O)OC2=O)cc1`: the TGI with M14 melanoma, with OVCAR-4 ovarian, with SK-MEL-5 melanoma, in the experiment with RPMI-8226 leukemia, in the experiment on UO-31 renal and in the experiment with OVCAR-8 ovarian was > 100 µM each time. Moreover, the TGI in the experiment with K-562 leukemia and with SK-MEL-28 melanoma was > 100 µM each time.
Consider `CC(C)=CC(=O)N1CCN(C(=O)C=C(C)C)CC1`, for which the TGI in the experiment with M14 melanoma, with OVCAR-4 ovarian, in the experiment with SK-MEL-5 melanoma, in the experiment with RPMI-8226 leukemia, in the experiment with UO-31 renal and in the experiment with OVCAR-8 ovarian was > 100 µM in each case. Moreover, the TGI in the experiment on K-562 leukemia and in the experiment with SK-MEL-28 melanoma was > 100 µM each time.
With `CN(C)C(=S)/N=c1\ss/c(=N\C(=S)N(C)C)n1-c1ccc2c(c1)OCO2`, the TGI in the experiment with M14 melanoma, in the experiment on OVCAR-4 ovarian, in the experiment on SK-MEL-5 melanoma, in the experiment with RXF 393 renal, with UO-31 renal and in the experiment on OVCAR-8 ovarian was > 100 µM in each case. Besides, the TGI with K-562 leukemia and in the experiment with SK-MEL-28 melanoma was > 100 µM each time.
For `O=C(CC(=O)N1N=C(c2ccccc2)C(N=Nc2ccc(Cl)cc2)C1=O)Nc1ccccc1Cl` (stereo unspecified), the TGI was > 100 µM with M14 melanoma; 37.2 µM with OVCAR-4 ovarian; 51.4 µM with SK-MEL-5 melanoma; > 100 µM in the experiment with RPMI-8226 leukemia; 78 µM with UO-31 renal; > 100 µM with K-562 leukemia. Also, in the experiment with SK-MEL-28 melanoma, the TGI came to 52.4 µM.

These data come from PubChem BioAssay (NCI).
